Experimental data reported in patent US8362050B2, “Compounds and methods for modulating G protein-coupled receptors” (IRM LLC, priority 2008, dated 2013).
Read-outs that look alike come from different tables or passages of the source.

Target: T1, Human GPR120 (Homo sapiens, UniProt Q5NUL3)
T1 construct: Ga16 (promiscuous G protein) fusion partner; expressed in transfected cells
T1 sequence (Q5NUL3 with tags, fused parts or gaps): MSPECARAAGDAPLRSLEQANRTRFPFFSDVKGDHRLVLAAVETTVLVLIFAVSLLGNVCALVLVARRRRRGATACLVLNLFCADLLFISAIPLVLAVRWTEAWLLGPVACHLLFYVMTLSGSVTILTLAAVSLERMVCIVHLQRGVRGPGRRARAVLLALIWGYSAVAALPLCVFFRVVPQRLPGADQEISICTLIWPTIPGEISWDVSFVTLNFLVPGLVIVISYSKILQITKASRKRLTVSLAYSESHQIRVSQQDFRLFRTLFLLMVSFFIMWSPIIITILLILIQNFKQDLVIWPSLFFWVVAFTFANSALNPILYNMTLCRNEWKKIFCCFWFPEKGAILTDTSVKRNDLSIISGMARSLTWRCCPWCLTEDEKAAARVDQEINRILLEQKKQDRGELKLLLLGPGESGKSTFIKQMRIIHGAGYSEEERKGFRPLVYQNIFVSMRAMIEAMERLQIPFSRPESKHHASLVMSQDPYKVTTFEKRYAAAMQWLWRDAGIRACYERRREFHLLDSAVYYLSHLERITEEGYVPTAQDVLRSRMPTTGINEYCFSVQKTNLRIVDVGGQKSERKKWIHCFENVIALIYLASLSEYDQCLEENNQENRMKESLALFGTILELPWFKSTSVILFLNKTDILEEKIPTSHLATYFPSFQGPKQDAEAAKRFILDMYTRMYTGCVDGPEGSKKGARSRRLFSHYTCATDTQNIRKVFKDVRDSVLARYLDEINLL
Test: FLIPR assay: agonist-induced calcium mobilization in HEK293-GPR120-Ga16 cells
Assay type: cell-based
Details: for EC50: GPR120 activation, calcium mobilization, HEK293-GPR120-Ga16 cells; for Emax: % enhancement of the test compound relative to a known compound, read-out: % Efficiency
Procedure: Human GPR120 stable cell-line was generated in HEK293 cells. GPR120 (Accession number BC101175) is fused to a promiscuous G protein, Ga16. The expression plasmid is transfected into HEK293 cells using Fugene6 following manufacturer's instruction. Stable cell-lines are generated following drug selection.
FLIPR (Fluorimetric Imaging Plate Reader, Molecular Devices) assays are performed to measure agonist-induced calcium mobilization in the GPR120-expressing cells. One day before the FLIPR assay, HEK293-GPR120-Ga16 cells are seeded into poly-D-lysine coated black-wall-clear bottom 384 well plates (Falcon) at 25,000 cells per well in 40 μl DMEM supplemented with 1% of FBS. The cells are incubated overnight at 37° C. in a humidified incubator. The medium is aspirated on the day of the FLIPR assay. The cells are incubated with 50 μl/well of the assay buffer (HBSS, 20 mM HEPES, 2.5 mM probenecid, pH7.4) containing Fluo-4 NM dye (Invitrogen cat# F36205) at 37° C. for 45 minutes, and then equilibrated at room temperature for 30 minutes. Compounds are dissolved in DMSO and diluted to desired concentrations with assay buffer. Fluorescent output is measured immediately following compound addition (12.5 μl/well) on the FLIPR machine.
An EC50 value was calculated using the change of fluorescent intensity from the reaction initiation. […] In some examples, compounds provided herein have EC50 values from 0.1 μM to 5 μM, while in other examples from 0.5 μM to 5 μM.
The EC50 value in those experiments is given as that concentration of the test compound in question that provoke a response halfway between the baseline and maximum responses. In certain examples compounds of Formula (I) have EC50 values from 0.001 μM to 5 μM. In other examples, compounds of Formula (I) have EC50 values from 0.001 μM to 4 μM. In other examples, compounds of Formula (I) have EC50 values from 0.001 μM to 3 μM. In other examples, compounds of Formula (I) have EC50 values from 0.001 μM to 2 μM. In other examples, compounds of Formula (I) have EC50 values from 0.001 μM to 1 μM. In other examples, compounds of Formula (I) have EC50 values from 0.001 μM to 0.5 μM. […] In other examples, compounds of Formula (I) have EC50 values from 0.001 μM to 0.1 μM.
The % efficiency in those experiments is given as that % enhancement of the test compound in question relative to a known compound. In certain examples compounds of Formula (I) have a % efficiency values from 50% to 150%. In other examples, compounds of Formula (I) have a % efficiency values from 55% to 150%. In other examples, compounds of Formula (I) have a % efficiency values from 60% to 150%. In other examples, compounds of Formula (I) have a % efficiency values from 65% to 150%. In other examples, compounds of Formula (I) have a % efficiency values from 70% to 150%. In other examples, compounds of Formula (I) have a % efficiency values from 75% to 150%. In other examples, compounds of Formula (I) have a % efficiency values from 80% to 150%. In other examples, compounds of Formula (I) have a % efficiency values from 85% to 150%. In other examples, compounds of Formula (I) have a % efficiency values from 90% to 150%. In other examples, compounds of Formula (I) have a % efficiency values from 95% to 150%. In other examples, compounds of Formula (I) have a % efficiency values from 100% to 150%.

Compound | EC50 (read-out: EC50 Range) | Emax | EC50 (read-out: EC50)
COc1cccc(-c2noc(-c3cccc(C(=O)O)c3)n2)c1 [Compound 53, 3-(3-(3-methoxyphenyl)-1,2,4-oxadiazol-5-yl)benzoic acid] | 500 to 1000 nM |  | 
COc1ccc(-n2cc(-c3cccc(C(=O)O)c3)nn2)cc1 [Compound 54, 3-(1-(4-methoxyphenyl)-1H-1,2,3-triazol-4-yl)benzoic acid] | 1000 to 5000 nM | 68.9% | 1400 nM
COc1ccc(-c2cn(-c3cccc(C(=O)O)c3)nn2)cc1 [Compound 55, 3-(4-(4-methoxyphenyl)-1H-1,2,3-triazol-1-yl)benzoic acid] | 1000 to 5000 nM |  | 
COc1ccc(-c2nc(-c3cccc(C(=O)O)c3)no2)cc1 [Compound 56, 3-(5-(4-methoxyphenyl)-1,2,4-oxadiazol-3-yl)-benzoic acid] | 250 to 500 nM | 60.4% | 290 nM
Cc1ccc(-c2cn(-c3cccc(C(=O)O)c3)nn2)cc1 [Compound 57, 3-(4-p-tolyl-1H-1,2,3-triazol-1-yl)benzoic acid] | 1000 to 5000 nM | 53.7% | 1340 nM
O=C(O)c1cccc(-n2cc(-c3ccc(C(F)(F)F)cc3)nn2)c1 [Compound 58, 3-(4-(4-(trifluoromethyl)phenyl)-1H-1,2,3-triazol-1-yl)benzoic acid] | 1000 to 5000 nM |  | 
O=C(O)c1cccc(-n2cc(-c3ccc(Cl)cc3)nn2)c1 [Compound 59, 3-(4-(4-chlorophenyl)-1H-1,2,3-triazol-1-yl)benzoic acid] | 1000 to 5000 nM |  | 
O=C(O)c1cccc(-n2cc(-c3ccccc3F)nn2)c1 [Compound 60, 3-(4-(2-fluorophenyl)-1H-1,2,3-triazol-1-yl)benzoic acid] | 1000 to 5000 nM |  | 
CCc1ccc(-c2cn(-c3cccc(C(=O)O)c3)nn2)cc1 [Compound 61, 3-(4-(4-ethylphenyl)-1H-1,2,3-triazol-1-yl)benzoic acid] | 500 to 1000 nM |  | 
O=C(O)c1cccc(-n2cc(-c3ccc(F)cc3F)nn2)c1 [Compound 62, 3-(4-(2,4-difluorophenyl)-1H-1,2,3-triazol-1-yl)benzoic acid] | 250 to 500 nM |  | 
O=C(O)c1cccc(-n2cc(-c3ccc(Br)cc3)nn2)c1 [Compound 63, 3-(4-(4-bromophenyl)-1H-1,2,3-triazol-1-yl)benzoic acid] | 1000 to 5000 nM |  | 
CC(C)c1ccc(-n2cc(-c3cccc(C(=O)O)c3)nn2)cc1 [Compound 64, 3-(1-(4-isopropylphenyl)-1H-1,2,3-triazol-4-yl)benzoic acid] | 500 to 1000 nM | 69% | 878 nM
CCc1ccc(-c2cn(-c3cc(OC)cc(C(=O)O)c3)nn2)cc1 [Compound 65, 3-(4-(4-ethylphenyl)-1H-1,2,3-triazol-1-yl)-5-methoxybenzoic acid] | 1000 to 5000 nM |  | 
CCc1ccc(-c2cn(-c3cc(F)cc(C(=O)O)c3)nn2)cc1 [Compound 66, 3-(4-(4-ethylphenyl)-1H-1,2,3-triazol-1-yl)-5-fluorobenzoic acid] | 500 to 1000 nM |  | 
Cc1ccc(-n2cc(-c3cccc(C(=O)O)c3)nn2)c(F)c1 [Compound 67, 3-(1-(2-fluoro-4-methylphenyl)-1H-1,2,3-triazol-4-yl)benzoic acid] | 100 to 250 nM |  | 
CCc1ccc(-c2cn(-c3ccc(Cl)c(C(=O)O)c3)nn2)cc1 [Compound 68] | > 5000 nM |  | 
CCc1ccc(-c2cn(-c3ccc(F)c(C(=O)O)c3)nn2)cc1 [Compound 69, 5-(4-(4-ethylphenyl)-1H-1,2,3-triazol-1-yl)-2-fluorobenzoic acid] | 1000 to 5000 nM |  | 
CCc1ccc(-c2cn(-c3cc(C(=O)O)ccc3F)nn2)cc1 [Compound 70, 3-(4-(4-ethylphenyl)-1H-1,2,3-triazol-1-yl)-4-fluorobenzoic acid] | 1000 to 5000 nM |  | 
